Data on 1 substance can be found in US20150141485A1, “PROGNOSIS AND TREATMENT OF LUNG CANCER USING miRNA-135b” (NATIONAL CHENG KUNG UNIVERSITY, priority 2013, published 2015).

For data set [1], the system named is pGL3-3′-UTRs of Hippo pathway genes. In words: Luciferase reporter assay, Hippo pathway 3'-UTRs. The settings on record: CL1-0 cells co-transfected with miR-135b and pGL3-3′-UTRs, 60 hours. It is filed as cell-based. As to the method: CL1-0 cells co-transfected with miR-135b and pGL3-3′-UTRs with scramble (NC) or Antago-135b for 60 hours. Luciferase activity was assayed and is presented a described in FIG. 6a. Mean±s.d. is shown, *P<0.05; **P<0.005 by Student's t-test.
(§1) One day before transfection, CL1-0 cells were seeded at a concentration of 2.5×10^4 per well. Next, the pClneo vector or miR-135b plasmid was co-transfected with the pGL3-target gene-3′UTR. The Renilla lunciferase plasmid (phRL-TK, Promega, Madison, Wis.) was co-transfected as transfection control. Cells were lysed 36 hours after transfection, and luciferase activity was measured using a Dual-Luciferase system (Promega, Madison, Wis.) according to the manufacture's protocol.
On the technique in general: A reporter such as luciferase makes a cellular process visible.

For another data set, the system named is LZTS1 3′-UTR. Description: Luciferase reporter assay, LZTS1 3'-UTR. It is filed as cell-based. The settings on record: CL1-0 cells co-transfected with miR-135b, vs Scramble. As to the method:
CL1-0 cells were co-transfected with miR-135b, wild-type LZTS1 3′-UTR along with Scramble or miR-135-specific antagomir (Antago-135b). Luciferase activity was measured and is presented as described in FIG. 5a. Mean±s.d. is shown, *P<0.05; **P<0.005 by Student's t-test.
as §1

In another data set the test system is CL1-5 cells. In words: Orthotopic lung cancer model. The format is in vivo, nude mice. The procedure:
CL1-5 cells were implanted orthotopically into the left lungs of 6-weeks-old nude mice (n=9). A series of scramble antagomir (NC) or miR-135b antagomir (Antago-135b) intravenous injections were performed every 2 days after tumor cell implantation. Lungs were harvested 25 days after the cells were implanted. […] Arrows indicate the visible nodules. […] Data are expressed as mean±s.e.m. *P<0.05 by Student's t-test.
Mice bearing CL1-5 cells were subjected to scramble antagomir (NC) or miR-135b antagomir (Antago-135b) treatment. Animal survival was determine using Kaplan-Meier survival analysis and the log-rank test for data obtained 25 days after the cancer cells were orthotopically injected (n=9).
Next, the effects of miR-135b inhibition on tumor growth and metastasis in an orthotopic lung cancer model were checked. Seven intravenous injections of miR-135b antagomir were given 4 days after CL1-5 implantation.

In data set [2] the test system is CL1-5-F4 cells. In words: Migration assay (culture inserts). It is filed as cell-based, human. Conditions: CL1-5-F4 cells transfected 48 hours, vs scramble (NC). As to the method:
CL1-5-F4 and Hop-62 cells were transfected with scramble (NC) of miR-135b-specific antagomir (Antago-135b) for 48 hours and the subjected to migration assays (FIG. 2d) and invasion assays (FIG. 2e) as described above. *P<0.05;**P<0.005 by Student's t-test.
For the migration assay, culture inserts (Ibidi, Munich, Germany) were inserted into 60-mm dishes. Next, the cell suspensions were seeded in each culture insert well at a concentration of 2.5×10^4 (CL1-0) or 3×10^4 (CL1-5-F4 and UACC-257) cells/mL. The culture inserts were removed to leave a gap of approximately 500 μm.

The subject of data set [3] is CL1-5-F4 cells. In words: Western blot of endogenous LZTS1. It is filed as cell-based, human. The settings on record: 100 nM, 48 hours. The procedure:
CL1-5-F4 and UACC-257 cells were administrated with 100 nM of negative control (NC) or antago-135b for 48 hours. Total cell lysates were harvested for western blot analysis.

Data set [4] deals with CL1-5-F4 cells. Description: Soft agar anchorage-independent growth assay. It is filed as cell-based, human. Conditions: CL1-5-F4 cells transfected 48 hours, vs NC. As to the method:
CL1-5-F4 and Hop-62 cells were transfected with the negative control (NC) or the Anatago-135b for 48 hours and subjected to soft agar assays. Error bars indicate mean±s.d.,*P<0.05 by Student's t-test.

A further data set relates to CL141 cells. In words: Western blot of Hippo pathway proteins. It is filed as cell-based. The settings on record: 72 hours. As to the method:
Western bolt analysis of the Hippo pathway proteins in CL1-5-F4 and CL141 cells incubated with Scramble (NC) of Antago-135b for 72 hours. Quantitative RT-PCR was used to assay miR-135b knockdown activity.
(A western blot detects proteins with antibodies after separation by electrophoresis.)

The mark [5] stands for this setting: seven i.v. injections, 4 days after CL1-5 implantation, vs control lungs.

Oligonucleotides are written 5' to 3', each unit as a sugar letter and its base; * is a phosphorothioate linkage, no mark a phosphodiester; rarer units and linkages stand in square brackets, end groups in braces. Plain capitals give the bases only. {Chol} = cholesterol; m = 2'-O-methyl

For the substance “5′mU(*)mC(*)mAmCmAmUmAmG-mGmAmAmUmGmAmAmAmAmGmCmC(*)mA(*)mU(*)mA(*)(3′-Ch1)3′ (SEQ ID NO:8) (mU*mC*mAmCmAmUmAmGmGmAmAmUmGmAmAmAmAmGmCmC*mA*mU*mA*{Chol}) [miR-135b antagomir]”, the miR-135b-induced reporter activity entry in data set [1] was “decrease”. The “suppressive effects of miR-135b on LZTS1 3′-UTR-carrying luciferase” value in the data set on LZTS1 3′-UTR is on record as “significantly reduced”. In the data set on CL1-5 cells (setting [5]), the orthotopic tumor growth entry is given as “inhibited orthotopic tumor growth” and the “volume of lung metastases” value is given as “decrease the volume of lung metastases”. For the same substance, the survival rates entry in the data set on CL1-5 cells (systemic delivery in orthotopic tumor-bearing mice) is recorded as “increased survival rates”. In the data set on CL1-5-F4 cells [2], the migratory ability result is “inhibited these changes”. The LZTS1 expression entry with CL1-5-F4 cells [3] is “significantly increased”. In the data set on CL1-5-F4 cells [4], the “number of cell colonies (soft agar)” value is given as “decreased”. In the data set with CL141 cells, the “LATS2, β-TrCP and NDR2 expressions” value was “induced”; the TAZ protein expression entry is “reduced”.
